Data: patent US20110313004A1, “DEUTERATED PYRIDINONES” (CONCERT PHARMACEUTICALS, INC., priority 2008, published 2011)

assay: Storage stability of the isolated compound at about −20° C.; type: physicochemical; settings: storage for approximately 2 weeks at about −20° C.
Source text: Compound 139 was synthesized in the same manner as Compound 151 with the exception that 4-fluoro-2,3,5,6-d4-aniline (98% atom % D, CDN Isotopes) was used in place of D p-toluidine-d9 in step 1. ^1H NMR (CDCl3): δ 7.44 (dd, J=2.5, 9.6, 1H), 7.31 (d, J=2.5, 1H), 6.67 (d, J=9.3, 1H). MS (M+H): 226.1.
Compound 161 was synthesized in the same manner as Compound 101 (Example 1, Scheme 6, steps 1-3), except that 4-chloro-2,3,5,6-d4-aniline (98% atom % D, CDN Isotopes) was used in place of aniline in step 1. MS (M+H): 242.1.
A solution of (ethyl carbonic) 1-(4-(methoxy-d3)phenyl-d4)-6-oxo-1,6-dihydropyridine-3-carboxylic anhydride 27 (464 mg, approximately. 1.43 mmol) in THF (14.8 mL) was cooled to 10° C. and NaBD4 (98 atom % D, Cambridge Isotopes Laboratories) (295 mg, 7.01 mmol) was added. To the resulting slurry was added MeOD (1.42 mL) via syringe pump at a rate of 0.015 mL/min. Upon completion, the reaction was diluted with MeOD and concentrated nearly to dryness on a rotary evaporator. This process was repeated twice. The resulting solid was suspended in CH2Cl2, silica gel was added, the slurry concentrated to dryness in vacuo, and the resulting solid was added to the top of a silica gel column. Purification via column chromatography on an ISCO instrument (0 to 10% MeOH in CH2Cl2) provided impure final product. A further purification by ISCO (50 to 100% EtOAc in hexanes) followed by a preparatory HPLC purification afforded 116 mg of the final product 156 in approximately 85% purity. ^1H NMR (CDCl3): δ 7.43 (dd, J=2.7, 9.5, 1H), 7.31 (dd, J=0.6, 2.5, 1H), 6.66 (dd, J=0.6, 9.5, 1H). MS (M+H): 241.1.

| Structure (SMILES) | condition of compound after storage |
| --- | --- |
| [2H]c1c([2H])c(-n2cc(C([2H])([2H])O)ccc2=O)c([2H])c([2H])c1F [Compound 139, 1-(4-Fluorophenyl-d4)-5-(hydroxy(methyl-d2))pyridin-2(1H)-one] | decomposed |
| [2H]c1c([2H])c(-n2cc(C([2H])([2H])O)ccc2=O)c([2H])c([2H])c1Cl [Compound 161, 1-(4-Chlorophenyl-d4)-5-(hydroxy(methyl-d2))-pyridin-2(1H)-one] | decomposed |
| [2H]c1c([2H])c(-n2cc(C([2H])([2H])O)ccc2=O)c([2H])c([2H])c1OC([2H])([2H])[2H] [Compound 156, 5-(Hydroxyl(methyl-d2))-1-(4-(methoxy-d3)phenyl-d4)pyridin-2(1H)-one] | decomposed |
